Assay [1] addresses Cytochrome b (Homo sapiens, UniProt P00156). Kind of assay: Cytochrome b Enzyme Assay. The following applies: pH 7.4; 25 °C. As to the method:
(§1) Reaction plates were incubated at room temperature for 10 min before reading absorbance at 550 nm. Absolute IC50 values were calculated in GraphPad Prism 6.0.

Assay [2] addresses T1, Cytochrome b (Candida albicans, UniProt I2BJW5).
T1 sequence (I2BJW5 whole entry): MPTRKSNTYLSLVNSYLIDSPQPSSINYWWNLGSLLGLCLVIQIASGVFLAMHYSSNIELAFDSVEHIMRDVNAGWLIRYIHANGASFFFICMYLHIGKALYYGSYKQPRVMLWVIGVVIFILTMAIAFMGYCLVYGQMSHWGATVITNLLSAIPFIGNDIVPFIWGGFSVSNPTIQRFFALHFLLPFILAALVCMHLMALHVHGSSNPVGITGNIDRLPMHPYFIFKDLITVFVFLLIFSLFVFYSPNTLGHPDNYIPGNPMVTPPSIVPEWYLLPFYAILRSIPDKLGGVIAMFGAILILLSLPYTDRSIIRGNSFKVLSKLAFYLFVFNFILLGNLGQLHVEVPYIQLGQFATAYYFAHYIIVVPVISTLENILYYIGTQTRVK
The experiment in a line: Cytochrome b Enzyme Assay. The following applies: pH 7.4; 25 °C. As to the method: as §1

The structures appear in SMILES notation.

Cytochrome b (Homo sapiens, UniProt P00156), sequence (P00156 whole entry): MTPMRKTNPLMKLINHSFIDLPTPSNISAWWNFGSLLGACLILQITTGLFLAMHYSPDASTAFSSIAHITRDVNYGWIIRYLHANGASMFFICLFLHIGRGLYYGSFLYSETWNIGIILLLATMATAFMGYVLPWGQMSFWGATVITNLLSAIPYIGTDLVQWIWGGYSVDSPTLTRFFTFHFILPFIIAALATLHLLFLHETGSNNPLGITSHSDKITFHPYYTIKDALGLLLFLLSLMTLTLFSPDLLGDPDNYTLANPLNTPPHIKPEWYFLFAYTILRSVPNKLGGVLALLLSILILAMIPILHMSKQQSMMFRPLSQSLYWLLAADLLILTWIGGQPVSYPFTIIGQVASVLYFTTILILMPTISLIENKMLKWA

On to `Fc1ccc(C(F)(F)F)cc1-c1nn(Cc2cnccn2)c2c(F)cccc12` [Inz-39], for which the IC50 – broadly, the concentration needed to halve the response being measured – against Cytochrome b [1] came to 10.8 µM; at Cytochrome b [2], 0.141 µM.

Regarding `Cn1nnc(Cn2nc(-c3cc(C(F)(F)F)ccc3F)c3ccccc32)n1` [Inz-83], the IC50 against Cytochrome b [1] was above 64 µM; on Cytochrome b [2], 1.22 µM.

For the compound `COC(=O)Cn1nc(-c2cccc(Oc3ccccc3)c2)c2ccccc21` [Inz-7], the IC50 at Cytochrome b [1] worked out at 9.97 µM; on Cytochrome b [2] it was 0.714 µM.

Consider `COC(=O)Cn1nc(-c2cc(C(F)(F)F)ccc2F)c2ccccc21` [Inz-2], for which the IC50 at Cytochrome b [1] came out at 4.62 µM; against Cytochrome b [2] it was 0.145 µM.

Turning to `c1ccc(-c2nn(Cc3c[nH]nn3)c3ccccc23)cc1` [Inz-79], the IC50 on Cytochrome b [1] and on Cytochrome b [2] was above 64 µM each time.

Consider `Cc1cc(Cn2nc(-c3ccccc3)c3ccccc32)on1` [Inz-31], for which the IC50 at Cytochrome b [1] and against Cytochrome b [2] was above 64 µM each time.

`Cc1cccc2c(-c3cc(C(F)(F)F)ccc3F)nn(Cc3cnccn3)c12` [Inz-38]: the IC50 at Cytochrome b [1] is above 64 µM; at Cytochrome b [2] it was 0.602 µM.

As for `CS(=O)(=O)N(c1ccc2c(-c3cc(C(F)(F)F)ccc3F)nn(Cc3cnccn3)c2c1)S(C)(=O)=O` [Inz-102], the IC50 against Cytochrome b [1] and against Cytochrome b [2] was above 64 µM each time.

Take `COC(=O)Cn1nc(-c2ccncc2)c2ccccc21` [Inz-92]: the IC50 at Cytochrome b [1] and on Cytochrome b [2] was above 64 µM throughout.

For the compound `COC(=O)Cn1cc(-c2cccc(OCc3ccccc3)c2)c2ccccc21` [Inz-50], the values for the IC50 against Cytochrome b [1] and at Cytochrome b [2] were above 64 µM and 13.1 µM, respectively.

On to `COc1cccc2c(-c3cc(C(F)(F)F)ccc3F)nn(Cc3cnccn3)c12` [Inz-95], for which the results for the IC50 on Cytochrome b [1] and against Cytochrome b [2] were 15.2 µM and 0.437 µM, respectively.

Turning to `COC(=O)Cn1nc(-c2cccc([N+](=O)[O-])c2)c2ccccc21` [Inz-12], the IC50 on Cytochrome b [1] is above 64 µM; against Cytochrome b [2], 6.07 µM.

Consider `COC(=O)Cn1nc(-c2ccccn2)c2ccccc21` [Inz-15], for which the 50% inhibitory concentration (IC50) was above 64 µM on Cytochrome b [1] and 62.4 µM against Cytochrome b [2].

Take `c1ccc(-c2nn(Cc3ccccn3)c3ccccc23)cc1` [Inz-85]: the IC50 against Cytochrome b [1] and on Cytochrome b [2] was above 64 µM each time.

As for `COC(=O)Cn1nc(-c2cccnc2)c2ccccc21` [Inz-14], the IC50 at Cytochrome b [1] and on Cytochrome b [2] was above 64 µM each time.

As for `CCN(CC)CCOc1cccc(-c2nn(CC(=O)OC)c3ccccc23)c1` [Inz-65], the results for the IC50 at Cytochrome b [1] and on Cytochrome b [2] were above 64 µM and 13.8 µM, respectively.

As for `COC(=O)Cn1nc(-c2cccc(OCCC(C)C)c2)c2ccccc21` [Inz-57], the figures for the IC50 on Cytochrome b [1] and against Cytochrome b [2] were 4.77 µM and 0.156 µM, respectively.

Take `FC(F)(F)Cn1nc(-c2ccccc2)c2ccccc21` [Inz-28]: the IC50 against Cytochrome b [1] and against Cytochrome b [2] was above 64 µM in each case.

Regarding `COC(=O)Cn1nc(-c2cccc(OCc3ccccc3)c2F)c2ccccc21` [Inz-69], the IC50 against Cytochrome b [1] was above 64 µM; against Cytochrome b [2], 3.27 µM.

For the compound `COC(=O)Cn1nc(-c2cccc(OCc3ccccc3)c2C)c2ccccc21` [Inz-66], the IC50 at Cytochrome b [1] is above 64 µM; at Cytochrome b [2], 1.08 µM.

As for `COC(=O)Cn1nc(-c2cccc(OCC(C)C)c2)c2ccccc21` [Inz-54], the figures for the IC50 on Cytochrome b [1] and against Cytochrome b [2] were 9.23 µM and 0.344 µM, respectively.

For `CNC(=O)Cn1nc(-c2ccccc2)c2ccccc21` [Inz-25], the IC50 at Cytochrome b [1] and against Cytochrome b [2] was above 64 µM in each case.

In the case of `O=C(O)Cn1nc(-c2cccc(OCc3ccccc3)c2)c2ccccc21` [Inz-47], the IC50 at Cytochrome b [1] and at Cytochrome b [2] was above 64 µM in each case.

As for `O=C(O)Cn1nc(-c2ccccc2)c2ccccc21` [Inz-24], the IC50 on Cytochrome b [1] and against Cytochrome b [2] was above 64 µM each time.

Turning to `Cc1nnc(Cn2nc(-c3ccccc3)c3ccccc32)o1` [Inz-32], the IC50 at Cytochrome b [1] and against Cytochrome b [2] was above 64 µM throughout.

Consider `Fc1ccc(C(F)(F)F)cc1-c1nn(Cc2cnccn2)c2ncccc12` [Inz-97], for which the IC50 at Cytochrome b [1] amounted to 54.4 µM; against Cytochrome b [2], 0.935 µM.

Consider `Fc1ccc(C(F)(F)F)cc1-c1nn(Cc2cnccn2)c2cccnc12` [Inz-99], for which the IC50 on Cytochrome b [1] is above 64 µM; against Cytochrome b [2], 17.7 µM.

Consider `COC(=O)Cn1nc(-c2cccc(OCCc3ccccc3)c2)c2ccccc21` [Inz-8], for which the results for the IC50 against Cytochrome b [1] and against Cytochrome b [2] were 13.9 µM and 0.346 µM, respectively.

Take `COC(=O)Cn1nc(-c2ccc(F)cc2F)c2ccccc21` [Inz-71]: the IC50 against Cytochrome b [1] was above 64 µM; against Cytochrome b [2] it was 16.6 µM.

`c1ccc(-c2nn(Cc3nccs3)c3ccccc23)cc1` [Inz-30]: the IC50 against Cytochrome b [1] and against Cytochrome b [2] was above 64 µM throughout.

On to `c1ccc(-c2nn(Cc3ncccn3)c3ccccc23)cc1` [Inz-36], for which the IC50 on Cytochrome b [1] and against Cytochrome b [2] was above 64 µM in each case.

For `Brc1cccnc1Cn1nc(-c2ccccc2)c2ccccc21` [Inz-90], the IC50 at Cytochrome b [1] and against Cytochrome b [2] was above 64 µM each time.

As to `O=C(Cn1nc(-c2ccccc2)c2ccccc21)NO` [Inz-88], the IC50 on Cytochrome b [1] and on Cytochrome b [2] was above 64 µM each time.

Take `COC(=O)Cn1nc(-c2cc(OCc3ccccc3)ccc2F)c2ccccc21` [Inz-68]: the IC50 against Cytochrome b [1] turned out to be 1.66 µM; against Cytochrome b [2], 0.0352 µM.

Take `Cn1cc(Cn2nc(-c3ccccc3)c3ccccc32)nn1` [Inz-35]: the IC50 against Cytochrome b [1] and at Cytochrome b [2] was above 64 µM in each case.

`COC(=O)Cn1nc(-c2cccs2)c2ccccc21` [Inz-73]: the IC50 on Cytochrome b [1] was above 64 µM; against Cytochrome b [2], 15.1 µM.

In the case of `COC(=O)Cn1nc(-c2ccccc2F)c2ccccc21` [Inz-19], the IC50 on Cytochrome b [1] stood at 36 µM; on Cytochrome b [2], 2.97 µM.

Take `COC(=O)Cn1nc(-c2cccc(F)c2F)c2ccccc21` [Inz-60]: the IC50 was above 64 µM on Cytochrome b [1] and 1.43 µM against Cytochrome b [2].

As for `COC(=O)Cn1nc(-c2ccccc2C#N)c2ccccc21` [Inz-20], the IC50 at Cytochrome b [1] and against Cytochrome b [2] was above 64 µM throughout.

Regarding `COC(=O)Cn1nc(-c2cc(C(F)(F)F)ccc2F)c2c(C(F)(F)F)cccc21` [Inz-22], the IC50 is above 64 µM against Cytochrome b [1] and 46.8 µM at Cytochrome b [2].

With `COC(=O)Cn1nc(-c2cccc(OCCN(C(C)C)C(C)C)c2)c2ccccc21` [Inz-67], the IC50 on Cytochrome b [1] was 19.3 µM; against Cytochrome b [2], 2.4 µM.

With `CNc1ccc2c(-c3cc(C(F)(F)F)ccc3F)nn(Cc3cnccn3)c2c1` [Inz-103], the values for the IC50 against Cytochrome b [1] and on Cytochrome b [2] were above 64 µM and 2.13 µM, respectively.

Consider `COC(=O)Cn1nc(-c2cccc(OCCC34CC5CC(CC(C5)C3)C4)c2)c2ccccc21` [Inz-75], for which the IC50 against Cytochrome b [1] came out at 1.08 µM; on Cytochrome b [2], 1.14 µM.

On to `COC(=O)Cn1nc(-c2ccsc2)c2ccccc21` [Inz-13], for which the IC50 on Cytochrome b [1] was above 64 µM; on Cytochrome b [2], 9.23 µM.
